Results published in patent US9770026B2, “Substituted pyrimidine compound and uses thereof” (Shenyang Sinochem Agrochemicals R&D Co., Ltd., priority 2012, dated 2017).

How the values were obtained:
[1] = test system: Green peach aphids (Myzus Persicae Sulzer); test: bioactivity test against green peach aphid, airbrush foliar spray; format: in vivo; conditions: for pest or weed control at 600 µg/mL: 600 mg/L
How it was run: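 Aphids (15-30 per cabbage leaf disc) on moist filter paper were airbrush-sprayed at 10 psi, 0.5 mL, with compound from acetone:methanol (1:1) diluted in water with 0.1% tween 80. Held at 25±1 C, 60±5% RH; survivors counted after 48 hrs to give death rates.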

[2] = test system: corn rust; test: protectant activity in vivo against corn rust; conditions: for pest or weed control at 25 ppm: read-out: protectant activity against corn rust in vivo, 25 ppm; for pest or weed control at 100 ppm: read-out: protectant activity against corn rust in vivo, 100 ppm; for pest or weed control at 400 ppm: read-out: protectant activity against corn rust in vivo, 400 ppm; for pest or weed control at 400 µg/mL: read-out: control effect against corn rust (%), 400 mg/L
[3] = test system: carmine spider mite; test: bioactivity test against carmine spider mite, airbrush spray; format: in vivo; conditions: for pest or weed control at 600 µg/mL: 600 mg/L
How it was run: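 Broadbean seedlings infested with adult mites were sprayed with compound (acetone/methanol stock diluted in 0.1% Tween 80 water) by airbrush at 0.7 kg/cm^2, 0.5 ml. Three replicates were run. Mortality was scored after 72 hrs.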

[4] = test system: wheat powdery mildew; test: protectant activity in vivo against wheat powdery mildew; conditions: for pest or weed control at 6.25 µg/mL: read-out: control effect against wheat powdery mildew (%), 6.25 mg/L; for pest or weed control at 25 µg/mL: read-out: control effect against wheat powdery mildew (%), 25 mg/L; for pest or weed control at 100 µg/mL: read-out: control effect against wheat powdery mildew (%), 100 mg/L; for pest or weed control at 400 µg/mL: read-out: control effect against wheat powdery mildew (%), 400 mg/L; for pest or weed control at 100 ppm: read-out: protectant activity against wheat powdery mildew in vivo, 100 ppm; for pest or weed control at 400 ppm: read-out: protectant activity against wheat powdery mildew in vivo, 400 ppm
[5] = test system: armyworm; test: bioactivity test against armyworm, airbrush spray; format: in vivo; conditions: for pest or weed control at 600 µg/mL: 600 mg/L
[6] = test system: cucumber downy mildew; test: protectant activity in vivo against cucumber downy mildew; conditions: for pest or weed control at 25 µg/mL / pest or weed control at 50 µg/mL / pest or weed control at 100 µg/mL / pest or weed control at 400 µg/mL / pest or weed control at 25 ppm / pest or weed control at 50 ppm / pest or weed control at 100 ppm / pest or weed control at 400 ppm: Cucumis sativus, 168 h; for pest or weed control at 25 µg/mL: read-out: control effect against cucumber downy mildew (%), 25 mg/L; for pest or weed control at 25 µg/mL / pest or weed control at 50 µg/mL / pest or weed control at 100 µg/mL / pest or weed control at 400 µg/mL / control effect against cucumber downy mildew (%): protectant activity; for pest or weed control at 50 µg/mL: read-out: control effect against cucumber downy mildew (%), 50 mg/L; for pest or weed control at 100 µg/mL: read-out: control effect against cucumber downy mildew (%), 100 mg/L; for pest or weed control at 400 µg/mL: read-out: control effect against cucumber downy mildew (%), 400 mg/L; for pest or weed control at 25 ppm: read-out: protectant activity against cucumber downy mildew in vivo, 25 ppm; for pest or weed control at 50 ppm: read-out: protectant activity against cucumber downy mildew in vivo, 50 ppm; for pest or weed control at 100 ppm: read-out: protectant activity against cucumber downy mildew in vivo, 100 ppm; for pest or weed control at 400 ppm: read-out: protectant activity against cucumber downy mildew in vivo, 400 ppm
[7] = test system: Diamond back moth; test: insecticidal activity against diamond back moth, airbrush spray; format: in vivo; conditions: for pest or weed control at 600 ppm: read-out: control (test results against diamond back moth); for pest or weed control at 600 µg/mL: 600 mg/L
How it was run: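 Airbrush leaf-disc spray test: both faces of 2 cm cabbage discs received 0.5 ml of test solution at 0.7 kg/cm^2. Solutions were made in acetone:methanol (1:1) and brought to concentration with 0.1% Tween 80 in water. Ten second-instar larvae per disc, triplicates, were held at 25° C and 60˜70% R.H., with mortality recorded at 72 hrs.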

[8] = Myzus persicae, foliar, 48 h, contrastive test, read-out: Insecticidal activity against peach aphid (%)
[9] = Myzus persicae, foliar, 48 h, death rate after 48 hrs
[10] = Myzus persicae, foliar, 48 h, 600 ppm, death rate after 48 hrs
[11] = Tetranychus cinnabarinus, 72 h, contrastive test, read-out: Insecticidal activity against carmine spider mite (% )
[12] = Tetranychus cinnabarinus, 72 h, 600 ppm, mortality after 72 hrs
[13] = Triticum aestivum, 168 h, protectant activity
[14] = 72 h, read-out: Insecticidal activity against armyworm (%)
[15] = 72 h, 600 ppm, mortality after 72 h
[16] = 72 h, 600 ppm, mortality after 72 hrs
[17] = Zea mays, 168 h, protectant activity
[18] = 600 ppm, mortality after 72 hrs

CCc1ncnc(NCCc2ccc(Oc3ccc(Cl)cc3)cc2)c1Cl [II-297]
pest or weed control at 1.25 µg/mL ([1]; Myzus persicae, foliar, 48 h, 1.25 mg/L, contrastive test, read-out: Insecticidal activity against peach aphid (%)): 93% | pest or weed control at 2.5 µg/mL ([1]; Myzus persicae, foliar, 48 h, 2.5 mg/L, contrastive test, read-out: Insecticidal activity against peach aphid (%)): 100% | pest or weed control at 5 µg/mL ([1]; Myzus persicae, foliar, 48 h, 5 mg/L, contrastive test, read-out: Insecticidal activity against peach aphid (%)): 100% | pest or weed control at 10 µg/mL ([1]; Myzus persicae, foliar, 48 h, 10 mg/L, contrastive test, read-out: Insecticidal activity against peach aphid (%)): 100% | pest or weed control at 100 µg/mL ([1]; Myzus persicae, foliar, 48 h, 100 mg/L, contrastive test, read-out: Insecticidal activity against peach aphid (%)): 100% | pest or weed control at 600 µg/mL [1, 8]: 100% | pest or weed control at 2.5 ppm ([1]; Myzus persicae, foliar, 48 h, 2.5 ppm, death rate after 48 hrs): 100% | pest or weed control at 5 ppm ([1]; Myzus persicae, foliar, 48 h, 5 ppm, death rate after 48 hrs): 100% | pest or weed control at 10 ppm [1, 9]: 100% | pest or weed control at 100 ppm [1, 9]: 100% | pest or weed control at 600 ppm [1, 10]: 100% | pest or weed control at 6.25 ppm ([2]; Zea mays, 168 h, read-out: protectant activity against corn rust in vivo, 6.25 ppm): 80 to 99% | pest or weed control at 25 ppm ([2]; Zea mays, 168 h): 80 to 99% | pest or weed control at 100 ppm ([2]; Zea mays, 168 h): 100% | pest or weed control at 400 ppm ([2]; Zea mays, 168 h): 100% | pest or weed control at 10 µg/mL ([3]; Tetranychus cinnabarinus, 72 h, 10 mg/L, contrastive test, read-out: Insecticidal activity against carmine spider mite (% )): 74% | pest or weed control at 100 µg/mL ([3]; Tetranychus cinnabarinus, 72 h, 100 mg/L, contrastive test, read-out: Insecticidal activity against carmine spider mite (% )): 100% | pest or weed control at 600 µg/mL [3, 11]: 100% | pest or weed control at 100 ppm ([3]; Tetranychus cinnabarinus, 72 h, 100 ppm, mortality after 72 hrs): 100% | pest or weed control at 600 ppm [3, 12]: 100% | pest or weed control at 0.4 µg/mL ([4]; Triticum aestivum, 168 h, read-out: control effect against wheat powdery mildew (%), 0.4 mg/L, protectant activity): 30% | pest or weed control at 1.6 µg/mL ([4]; Triticum aestivum, 168 h, read-out: control effect against wheat powdery mildew (%), 1.6 mg/L, protectant activity): 40% | pest or weed control at 6.25 µg/mL [4, 13]: 90% | pest or weed control at 25 µg/mL [4, 13]: 100% | pest or weed control at 100 µg/mL [4, 13]: 100% | pest or weed control at 400 µg/mL [4, 13]: 100% | pest or weed control at 6.25 ppm ([4]; Triticum aestivum, 168 h, read-out: protectant activity against wheat powdery mildew in vivo, 6.25 ppm): 80 to 99% | pest or weed control at 25 ppm ([4]; Triticum aestivum, 168 h, read-out: protectant activity against wheat powdery mildew in vivo, 25 ppm): 100% | pest or weed control at 100 ppm ([4]; Triticum aestivum, 168 h): 100% | pest or weed control at 400 ppm ([4]; Triticum aestivum, 168 h): 100% | pest or weed control at 10 µg/mL ([5]; 72 h, 10 mg/L, read-out: Insecticidal activity against armyworm (%)): 30% | pest or weed control at 100 µg/mL ([5]; 72 h, 100 mg/L, read-out: Insecticidal activity against armyworm (%)): 95% | pest or weed control at 600 µg/mL [5, 14]: 100% | pest or weed control at 100 ppm ([5]; 72 h, 100 ppm, mortality after 72 h): 80 to 99% | pest or weed control at 600 ppm [5, 15]: 100% | pest or weed control at 25 µg/mL [6]: 100% | pest or weed control at 50 µg/mL [6]: 100% | pest or weed control at 100 µg/mL [6]: 100% | pest or weed control at 400 µg/mL [6]: 100% | pest or weed control at 25 ppm [6]: 100% | pest or weed control at 50 ppm [6]: 100% | pest or weed control at 100 ppm [6]: 100% | pest or weed control at 400 ppm [6]: 100% | pest or weed control at 600 ppm [7, 16]: 100%

Cc1ncnc(NCc2ccc(Oc3c(Cl)cc([N+](=O)[O-])cc3Cl)cc2)c1Cl [CK65, reference compound]
pest or weed control at 600 µg/mL [1, 8]: 0% | pest or weed control at 400 µg/mL [2, 17]: 0% | pest or weed control at 600 µg/mL [3, 11]: 0% | pest or weed control at 400 µg/mL [4, 13]: 0% | pest or weed control at 600 µg/mL [5, 14]: 0% | pest or weed control at 400 µg/mL [6]: 0% | pest or weed control at 10 µg/mL ([7]; 72 h, 10 mg/L): 5% | pest or weed control at 100 µg/mL ([7]; 72 h, 100 mg/L): 35% | pest or weed control at 600 µg/mL ([7]; 72 h): 86%

FC(F)(F)c1cnc(Oc2ccc(CCNc3ncnc(Cl)c3Cl)cc2)c(Cl)c1 [CK72, reference compound]
pest or weed control at 600 µg/mL [1, 8]: 55% | pest or weed control at 6.25 µg/mL ([2]; Zea mays, 168 h, read-out: control effect against corn rust (%), 6.25 mg/L, protectant activity): 0% | pest or weed control at 25 µg/mL ([2]; Zea mays, 168 h, read-out: control effect against corn rust (%), 25 mg/L, protectant activity): 20% | pest or weed control at 100 µg/mL ([2]; Zea mays, 168 h, read-out: control effect against corn rust (%), 100 mg/L, protectant activity): 80% | pest or weed control at 400 µg/mL [2, 17]: 100% | pest or weed control at 600 µg/mL [3, 11]: 13% | pest or weed control at 6.25 µg/mL [4, 13]: 50% | pest or weed control at 25 µg/mL [4, 13]: 60% | pest or weed control at 100 µg/mL [4, 13]: 70% | pest or weed control at 400 µg/mL [4, 13]: 100% | pest or weed control at 600 µg/mL [5, 14]: 71% | pest or weed control at 25 µg/mL [6]: 20% | pest or weed control at 50 µg/mL [6]: 40% | pest or weed control at 100 µg/mL [6]: 100% | pest or weed control at 400 µg/mL [6]: 100% | pest or weed control at 600 µg/mL ([7]; 72 h): 0%

CCc1ncnc(NCCc2ccc(Oc3ncc(Cl)cc3Cl)cc2)c1Cl [Compound I-583]
pest or weed control at 10 ppm [1, 9]: 80 to 99% | pest or weed control at 100 ppm [1, 9]: 100% | pest or weed control at 600 ppm [1, 10]: 100% | pest or weed control at 25 ppm ([2]; Zea mays, 168 h): 100% | pest or weed control at 100 ppm ([2]; Zea mays, 168 h): 100% | pest or weed control at 400 ppm ([2]; Zea mays, 168 h): 100% | pest or weed control at 600 ppm [3, 12]: 100% | pest or weed control at 100 ppm ([4]; Triticum aestivum, 168 h): 80 to 99% | pest or weed control at 400 ppm ([4]; Triticum aestivum, 168 h): 80 to 99% | pest or weed control at 600 ppm [5, 15]: 100% | pest or weed control at 25 ppm [6]: 100% | pest or weed control at 50 ppm [6]: 80 to 99% | pest or weed control at 100 ppm [6]: 100% | pest or weed control at 400 ppm [6]: 100% | pest or weed control at 600 ppm [7, 16]: 100%

Cc1ncnc(NCCc2ccc(Oc3ccccc3)nc2)c1Cl [III-1]
control (test results against green peach aphid) ([1]; 600 ppm, death rate after 48 hrs): 100% | protectant activity against corn rust in vivo ([2]; 400 ppm): 100% | control against carmine spider mite [3, 18]: 100% | control effect against wheat powdery mildew (%) ([4]; 6.25 mg/L, protectant activity): 98% | control effect against wheat powdery mildew (%) ([4]; 25 mg/L, protectant activity): 98% | control effect against wheat powdery mildew (%) ([4]; 100 mg/L, protectant activity): 98% | control effect against wheat powdery mildew (%) ([4]; 400 mg/L, protectant activity): 100% | protectant activity against wheat powdery mildew in vivo ([4]; 400 ppm): 100% | control (test results against armyworm) ([5]; 600 ppm, mortality after 72 h): 100% | control effect against cucumber downy mildew (%) ([6]; 12.5 mg/L): 100% | control effect against cucumber downy mildew (%) ([6]; 25 mg/L): 100% | control effect against cucumber downy mildew (%) ([6]; 50 mg/L): 100% | control effect against cucumber downy mildew (%) ([6]; 100 mg/L): 100% | control effect against cucumber downy mildew (%) ([6]; 400 mg/L): 100% | protectant activity against cucumber downy mildew in vivo ([6]; 12.5 ppm): 100% | protectant activity against cucumber downy mildew in vivo ([6]; 25 ppm): 100% | protectant activity against cucumber downy mildew in vivo ([6]; 50 ppm): 100% | protectant activity against cucumber downy mildew in vivo ([6]; 100 ppm): 100% | protectant activity against cucumber downy mildew in vivo ([6]; 400 ppm): 100% | control (test results against diamond back moth) [7, 18]: 100%
